# Publication PMC5428509, “Irreversible inhibition of BTK kinase by a novel highly selective inhibitor CHMFL-BTK-11 suppresses inflammatory response in rheumatoid arthritis model” (Scientific Reports, 2017)
# What was measured:
# Experiment in all cases: biochemical
# Parameters in all cases: KinomeScan competition binding panel (DiscoveRx), percent of control at 1 uM
# Conditions in all cases: read-out: Percent Control
# PRP4 = target: T1, PRP4 (Homo sapiens, UniProt Q13523)
# T1 construct: gene PRPF4B
# T1 sequence (Q13523 whole entry): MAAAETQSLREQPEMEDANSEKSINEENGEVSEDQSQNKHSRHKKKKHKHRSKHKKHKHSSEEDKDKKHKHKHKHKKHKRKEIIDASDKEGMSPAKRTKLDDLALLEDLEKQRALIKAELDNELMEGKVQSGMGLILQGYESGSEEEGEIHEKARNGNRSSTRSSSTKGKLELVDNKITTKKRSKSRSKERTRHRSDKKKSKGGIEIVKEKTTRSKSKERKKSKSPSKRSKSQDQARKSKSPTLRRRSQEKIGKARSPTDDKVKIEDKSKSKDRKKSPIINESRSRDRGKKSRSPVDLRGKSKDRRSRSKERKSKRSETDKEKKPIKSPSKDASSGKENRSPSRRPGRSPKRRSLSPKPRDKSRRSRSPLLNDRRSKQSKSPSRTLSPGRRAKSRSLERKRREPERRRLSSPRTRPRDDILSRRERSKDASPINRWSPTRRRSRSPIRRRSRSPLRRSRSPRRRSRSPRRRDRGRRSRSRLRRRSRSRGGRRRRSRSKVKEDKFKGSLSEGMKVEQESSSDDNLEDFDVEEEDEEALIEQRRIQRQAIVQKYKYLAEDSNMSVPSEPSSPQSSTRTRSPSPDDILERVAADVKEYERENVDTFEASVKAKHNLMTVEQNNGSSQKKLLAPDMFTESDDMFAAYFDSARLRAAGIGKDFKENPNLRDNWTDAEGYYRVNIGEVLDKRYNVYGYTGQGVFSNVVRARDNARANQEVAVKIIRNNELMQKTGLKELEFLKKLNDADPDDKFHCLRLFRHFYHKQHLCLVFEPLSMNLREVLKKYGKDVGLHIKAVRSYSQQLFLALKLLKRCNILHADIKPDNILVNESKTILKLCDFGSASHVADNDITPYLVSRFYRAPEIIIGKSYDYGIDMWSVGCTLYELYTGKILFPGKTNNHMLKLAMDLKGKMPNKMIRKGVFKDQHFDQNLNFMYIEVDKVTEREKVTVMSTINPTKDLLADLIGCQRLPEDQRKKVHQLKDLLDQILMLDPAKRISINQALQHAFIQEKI
# Procedure, shortened: (§1)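 KinomeScan technology used to profile binding across a panel of 456 kinases and mutants.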
# EGFR(L861Q) = EGFR(L861Q) (Homo sapiens, UniProt P00533, L861Q)
# Chain of EGFR(L861Q) (P00533 whole entry L861Q): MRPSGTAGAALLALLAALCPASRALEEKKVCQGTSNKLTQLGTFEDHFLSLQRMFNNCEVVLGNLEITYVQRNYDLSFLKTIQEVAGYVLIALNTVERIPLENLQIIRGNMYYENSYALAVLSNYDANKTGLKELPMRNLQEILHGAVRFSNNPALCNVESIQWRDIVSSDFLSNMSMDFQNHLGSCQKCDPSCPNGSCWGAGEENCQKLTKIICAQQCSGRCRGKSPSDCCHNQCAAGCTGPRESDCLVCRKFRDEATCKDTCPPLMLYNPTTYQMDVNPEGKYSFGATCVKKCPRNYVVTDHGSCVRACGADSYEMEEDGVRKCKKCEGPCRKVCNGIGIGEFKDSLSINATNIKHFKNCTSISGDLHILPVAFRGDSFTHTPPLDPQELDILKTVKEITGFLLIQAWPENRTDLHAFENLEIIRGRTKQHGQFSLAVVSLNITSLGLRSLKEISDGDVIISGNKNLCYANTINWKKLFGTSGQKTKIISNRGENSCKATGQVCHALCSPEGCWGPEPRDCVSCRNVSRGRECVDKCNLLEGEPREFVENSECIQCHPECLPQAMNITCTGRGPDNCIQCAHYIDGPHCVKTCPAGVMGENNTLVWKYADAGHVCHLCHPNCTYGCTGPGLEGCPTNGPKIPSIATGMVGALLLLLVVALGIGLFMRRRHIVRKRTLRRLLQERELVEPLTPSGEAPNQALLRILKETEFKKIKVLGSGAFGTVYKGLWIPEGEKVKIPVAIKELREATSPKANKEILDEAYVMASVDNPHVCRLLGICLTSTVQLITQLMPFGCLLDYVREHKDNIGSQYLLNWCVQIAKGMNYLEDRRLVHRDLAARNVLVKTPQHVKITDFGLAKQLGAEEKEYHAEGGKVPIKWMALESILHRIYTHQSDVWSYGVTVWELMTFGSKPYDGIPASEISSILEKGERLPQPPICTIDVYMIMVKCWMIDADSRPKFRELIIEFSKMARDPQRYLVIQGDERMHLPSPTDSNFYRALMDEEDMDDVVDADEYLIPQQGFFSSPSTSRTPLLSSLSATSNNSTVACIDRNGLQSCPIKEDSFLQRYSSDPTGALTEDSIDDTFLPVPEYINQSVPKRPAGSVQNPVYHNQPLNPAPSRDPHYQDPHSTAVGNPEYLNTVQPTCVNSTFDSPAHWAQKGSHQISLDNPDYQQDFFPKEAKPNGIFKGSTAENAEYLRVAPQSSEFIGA
# Procedure, shortened: as §1
# MAK = MAK (Homo sapiens, UniProt P20794)
# Procedure, shortened: as §1
# PIM3 = PIM3 (Homo sapiens, UniProt Q86V86)
# Procedure, shortened: as §1
# FLT3(N841I) = FLT3(N841I) (Homo sapiens, UniProt P36888, N841I)
# Procedure, shortened: as §1
# CDC2L1 = target: T2, CDC2L1 (Homo sapiens, UniProt P21127)
# T2 construct: gene CDK11B
# Procedure, shortened: as §1
# PIP5K1C = PIP5K1C (Homo sapiens, UniProt O60331)
# Procedure, shortened: as §1
# FLT3(D835H) = FLT3(D835H) (Homo sapiens, UniProt P36888, D835H)
# Procedure, shortened: as §1
# GRK7 = GRK7 (Homo sapiens, UniProt Q8WTQ7)
# Procedure, shortened: as §1
# PIK3CA(Q546K) = PIK3CA(Q546K) (Homo sapiens, UniProt P42336, Q546K)
# Chain of PIK3CA(Q546K) (P42336 whole entry Q546K): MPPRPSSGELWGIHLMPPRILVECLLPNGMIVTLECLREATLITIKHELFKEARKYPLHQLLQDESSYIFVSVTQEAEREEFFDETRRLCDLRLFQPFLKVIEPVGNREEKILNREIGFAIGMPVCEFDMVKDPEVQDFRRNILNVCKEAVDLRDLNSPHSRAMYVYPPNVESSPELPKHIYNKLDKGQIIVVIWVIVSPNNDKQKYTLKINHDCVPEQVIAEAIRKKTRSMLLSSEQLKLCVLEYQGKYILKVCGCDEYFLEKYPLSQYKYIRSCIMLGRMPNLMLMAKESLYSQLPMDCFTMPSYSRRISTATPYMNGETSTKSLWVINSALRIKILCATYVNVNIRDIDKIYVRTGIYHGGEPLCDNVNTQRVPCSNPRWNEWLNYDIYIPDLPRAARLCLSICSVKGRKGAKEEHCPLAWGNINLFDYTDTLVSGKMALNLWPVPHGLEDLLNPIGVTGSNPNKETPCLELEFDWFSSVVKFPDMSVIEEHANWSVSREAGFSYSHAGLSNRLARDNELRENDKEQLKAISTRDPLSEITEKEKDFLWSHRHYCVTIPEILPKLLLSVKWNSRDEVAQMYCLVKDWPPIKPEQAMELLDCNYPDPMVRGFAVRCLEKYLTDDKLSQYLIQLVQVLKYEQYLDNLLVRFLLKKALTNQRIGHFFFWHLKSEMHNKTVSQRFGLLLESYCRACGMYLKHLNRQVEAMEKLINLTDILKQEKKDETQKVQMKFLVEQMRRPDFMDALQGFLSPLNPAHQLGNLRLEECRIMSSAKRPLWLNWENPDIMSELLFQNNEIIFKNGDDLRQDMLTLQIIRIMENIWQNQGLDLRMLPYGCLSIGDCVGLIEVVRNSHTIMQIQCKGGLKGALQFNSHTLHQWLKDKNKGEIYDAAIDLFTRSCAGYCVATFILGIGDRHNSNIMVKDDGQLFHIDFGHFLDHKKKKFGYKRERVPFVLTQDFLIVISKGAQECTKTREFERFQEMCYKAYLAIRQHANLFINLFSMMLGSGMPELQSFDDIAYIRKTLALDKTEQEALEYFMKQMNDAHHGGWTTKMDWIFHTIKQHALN
# Procedure, shortened: as §1
# BRSK1 = BRSK1 (Homo sapiens, UniProt Q8TDC3)
# Procedure, shortened: as §1
# [1] = target: T3, RSK3(Kin.Dom.1-N-terminal) (Homo sapiens, UniProt Q15349)
# T3 construct: gene RPS6KA2; Kin.Dom.1-N-terminal
# T3 sequence (Q15349 whole entry): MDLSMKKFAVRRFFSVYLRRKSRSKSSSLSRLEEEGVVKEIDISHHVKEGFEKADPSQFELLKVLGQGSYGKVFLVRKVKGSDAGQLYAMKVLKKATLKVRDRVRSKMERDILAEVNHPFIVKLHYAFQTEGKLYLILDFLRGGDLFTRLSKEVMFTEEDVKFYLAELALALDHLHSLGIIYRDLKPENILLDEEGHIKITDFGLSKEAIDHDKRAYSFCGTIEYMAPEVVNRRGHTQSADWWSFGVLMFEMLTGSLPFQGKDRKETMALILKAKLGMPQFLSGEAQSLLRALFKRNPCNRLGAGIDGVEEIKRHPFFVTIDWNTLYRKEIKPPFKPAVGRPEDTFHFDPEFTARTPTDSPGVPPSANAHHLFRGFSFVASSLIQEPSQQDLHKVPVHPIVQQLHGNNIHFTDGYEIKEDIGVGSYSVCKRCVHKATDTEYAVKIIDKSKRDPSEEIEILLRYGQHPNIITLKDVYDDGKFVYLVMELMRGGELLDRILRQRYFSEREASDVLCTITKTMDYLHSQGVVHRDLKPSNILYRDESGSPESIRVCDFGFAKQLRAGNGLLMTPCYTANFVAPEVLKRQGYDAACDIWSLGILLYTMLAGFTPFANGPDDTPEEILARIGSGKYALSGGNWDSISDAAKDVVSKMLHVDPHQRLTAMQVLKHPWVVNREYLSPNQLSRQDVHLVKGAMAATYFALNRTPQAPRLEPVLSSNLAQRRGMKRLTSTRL
# Procedure, shortened: as §1
# SYK = SYK (Homo sapiens, UniProt P43405)
# Procedure, shortened: as §1
# SNARK = target: T4, SNARK (Homo sapiens, UniProt Q9H093)
# T4 construct: gene NUAK2
# Procedure, shortened: as §1
# DCAMKL1 = target: T5, DCAMKL1 (Homo sapiens, UniProt O15075)
# T5 construct: gene DCLK1
# T5 sequence (O15075 whole entry): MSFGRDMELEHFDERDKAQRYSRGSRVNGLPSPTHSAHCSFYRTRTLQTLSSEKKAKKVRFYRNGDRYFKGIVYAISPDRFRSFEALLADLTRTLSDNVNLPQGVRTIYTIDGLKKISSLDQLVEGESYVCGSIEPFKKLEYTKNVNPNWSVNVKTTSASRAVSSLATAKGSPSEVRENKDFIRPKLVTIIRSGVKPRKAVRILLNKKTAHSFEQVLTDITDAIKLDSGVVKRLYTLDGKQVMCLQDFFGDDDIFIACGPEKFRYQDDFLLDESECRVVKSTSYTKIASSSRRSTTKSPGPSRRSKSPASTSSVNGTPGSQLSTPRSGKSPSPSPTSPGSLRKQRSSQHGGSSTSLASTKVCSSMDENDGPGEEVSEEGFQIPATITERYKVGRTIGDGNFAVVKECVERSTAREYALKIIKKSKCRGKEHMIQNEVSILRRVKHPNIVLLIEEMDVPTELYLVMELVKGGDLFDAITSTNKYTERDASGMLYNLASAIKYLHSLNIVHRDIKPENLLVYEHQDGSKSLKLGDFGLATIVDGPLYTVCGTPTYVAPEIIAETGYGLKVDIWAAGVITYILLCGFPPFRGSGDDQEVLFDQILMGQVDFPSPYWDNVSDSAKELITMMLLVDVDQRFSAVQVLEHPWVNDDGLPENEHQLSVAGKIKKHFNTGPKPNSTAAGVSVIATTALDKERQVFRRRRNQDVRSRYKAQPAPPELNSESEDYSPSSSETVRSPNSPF
# Procedure, shortened: as §1
# [2] = target: T6, RSK1(Kin.Dom.1-N-terminal) (Homo sapiens, UniProt Q15418)
# T6 construct: gene RPS6KA1; Kin.Dom.1-N-terminal
# Procedure, shortened: as §1
# MARK4 = MARK4 (Homo sapiens, UniProt Q96L34)
# Procedure, shortened: as §1
# PHKG1 = PHKG1 (Homo sapiens, UniProt Q16816)
# Procedure, shortened: as §1
# MAP4K3 = MAP4K3 (Homo sapiens, UniProt Q8IVH8)
# Procedure, shortened: as §1
# EGFR(G719S) = EGFR(G719S) (Homo sapiens, UniProt P00533, G719S)
# Procedure, shortened: as §1
# SLK = SLK (Homo sapiens, UniProt Q9H2G2)
# Procedure, shortened: as §1
# DYRK1B = DYRK1B (Homo sapiens, UniProt Q9Y463)
# Procedure, shortened: as §1
# FLT3(D835Y) = FLT3(D835Y) (Homo sapiens, UniProt P36888, D835Y)
# Procedure, shortened: as §1
# PHKG2 = PHKG2 (Homo sapiens, UniProt P15735)
# Procedure, shortened: as §1
compound,measurement,setting,value
C=CC(=O)Nc1cc(-n2c(=O)ccc3cnc4ccc(-n5cccn5)cc4c32)ccc1C [CHMFL-BTK-11],remaining binding at 1 µM,PRP4,93%
same,remaining binding at 1 µM,EGFR(L861Q),71%
same,remaining binding at 1 µM,MAK,100%
same,remaining binding at 1 µM,PIM3,95%
same,remaining binding at 1 µM,FLT3(N841I),100%
same,remaining binding at 1 µM,CDC2L1,100%
same,remaining binding at 1 µM,PIP5K1C,82%
same,remaining binding at 1 µM,FLT3(D835H),100%
same,remaining binding at 1 µM,GRK7,100%
same,remaining binding at 1 µM,PIK3CA(Q546K),97%
same,remaining binding at 1 µM,BRSK1,100%
same,remaining binding at 1 µM,[1],100%
same,remaining binding at 1 µM,SYK,93%
same,remaining binding at 1 µM,SNARK,90%
same,remaining binding at 1 µM,DCAMKL1,91%
same,remaining binding at 1 µM,[2],82%
same,remaining binding at 1 µM,MARK4,79%
same,remaining binding at 1 µM,PHKG1,100%
same,remaining binding at 1 µM,MAP4K3,100%
same,remaining binding at 1 µM,EGFR(G719S),88%
same,remaining binding at 1 µM,SLK,100%
same,remaining binding at 1 µM,DYRK1B,65%
same,remaining binding at 1 µM,FLT3(D835Y),100%
same,remaining binding at 1 µM,PHKG2,100%
